Laboratory results published in ChEMBL document CHEMBL2203167, “Structural modifications of 5,6-dihydroxypyrimidines with anti-HIV activity” (Bioorg Med Chem Lett, 2012).

What was measured:
[1] = tested on: Human immunodeficiency virus 1; experiment: Antiviral activity against HIV1 3B infected in human C8166 cells assessed as inhibition of syncytia after 3 days; format: functional, organism-based; details: Human immunodeficiency virus 1, 3B, C8166, 72 h
[2] = Cytotoxicity against human C8166 cells after 3 days by MTT assay; format: cell-based
[3] = Therapeutic index, ratio of CC50 for human C8166 cells to EC50 for HIV1 3B; format: cell-based; details: read-out: Ratio CC50/EC50

Work on CC(C)(NC(=O)OCc1ccccc1)c1nc(O)c(O)c(C(=O)NCc2ccc(C(F)(F)F)cc2)n1 yielded an EC50 [1] of 0.24 µM, a CC50 at 72 h [2] of 58.1 µM and a selectivity ratio [3] of 244.

Compound COCCNC(=O)c1nc(C(C)(C)NC(=O)OCc2ccccc2)nc(O)c1O has an EC50 [1] of 26 µM, a CC50 at 72 h [2] of 348 µM and a selectivity ratio [3] of 13.4.

In the case of COc1cc(CNC(=O)c2nc(C(C)(C)NC(=O)OCc3ccccc3)nc(O)c2O)cc(OC)c1OC, the EC50 [1] is reported as 12.3 µM, the CC50 at 72 h [2] is reported as 110 µM and the selectivity ratio [3] is reported as 8.89.

COCCCNC(=O)c1nc(C(C)(C)NC(=O)OCc2ccccc2)nc(O)c1O showed an EC50 [1] of 8.3 µM, a CC50 at 72 h [2] of 259 µM and a selectivity ratio [3] of 31.2.

For COCCNC(=O)Nc1nc(C(C)(C)NC(=O)OCc2ccccc2)nc(O)c1O, the EC50 [1] was 52.3 µM, the CC50 at 72 h [2] was greater than 500 µM and the selectivity ratio [3] was greater than 9.13.

Work on COc1ccc(CNC(=O)c2nc(C(C)(C)NC(=O)OCc3ccccc3)nc(O)c2O)cc1 yielded an EC50 [1] of 0.15 µM, a CC50 at 72 h [2] of 164 µM and a selectivity ratio [3] of 1090.

For CC(C)(NC(=O)OCc1ccccc1)c1nc(O)c(O)c(C(=O)NCCc2cc3ccccc3[nH]2)n1, the EC50 [1] was 7.12 µM, the CC50 at 72 h [2] was 34.1 µM and the selectivity ratio [3] was 4.76.

For CC(C)(NC(=O)OCc1ccccc1)c1nc(O)c(O)c(C(=O)NCc2ccccc2)n1, the EC50 [1] was 0.32 µM, the CC50 at 72 h [2] was 41.4 µM and the selectivity ratio [3] was 128.

CC(C)(NC(=O)OCc1ccccc1)c1nc(O)c(O)c(C(=O)NCC2CC2)n1 gave an EC50 [1] of 24.4 µM, a CC50 at 72 h [2] of 204 µM and a selectivity ratio [3] of 8.33.

Cc1cn([C@H]2C[C@H](N=[N+]=[N-])[C@@H](CO)O2)c(=O)[nH]c1=O [ZIDOVUDINE] showed an EC50 [1] of 0.019 µM and a selectivity ratio [3] of 274000.

In the case of CC(C)(NC(=O)OCc1ccccc1)c1nc(O)c2oc(=O)[nH]c2n1, the EC50 [1] is reported as 74.2 µM, the CC50 at 72 h [2] is reported as greater than 500 µM and the selectivity ratio [3] is reported as greater than 7.83.

For CC(C)(NC(=O)OCc1ccccc1)c1nc(O)c(O)c(C(=O)NCc2ccccc2Cl)n1, the EC50 [1] was 0.14 µM, the CC50 at 72 h [2] was 53.9 µM and the selectivity ratio [3] was 396.

In the case of COc1ccc(CNC(=O)Nc2nc(C(C)(C)NC(=O)OCc3ccccc3)nc(O)c2O)cc1, the EC50 [1] is reported as 93.2 µM, the CC50 at 72 h [2] is reported as greater than 500 µM and the selectivity ratio [3] is reported as 4.46.

Compound CC(C)(NC(=O)OCc1ccccc1)c1nc(O)c(O)c(C(=O)NN)n1 has an EC50 [1] of 164 µM, a CC50 at 72 h [2] greater than 500 µM and a selectivity ratio [3] greater than 3.37.

For CC(C)(NC(=O)OCc1ccccc1)c1nc(O)c(O)c(NC(=O)NCc2ccc(F)cc2)n1, the EC50 [1] was 9.87 µM, the CC50 at 72 h [2] was 81.1 µM and the selectivity ratio [3] was 8.21.

For Cc1ccc(CNC(=O)c2nc(C(C)(C)NC(=O)OCc3ccccc3)nc(O)c2O)cc1, the EC50 [1] was 0.55 µM, the CC50 at 72 h [2] was 234 µM and the selectivity ratio [3] was 383.

CC(C)(NC(=O)OCc1ccccc1)c1nc(O)c(O)c(C(=O)N/N=C/c2ccc(F)cc2)n1 showed an EC50 [1] of 27.7 µM, a CC50 at 72 h [2] of 378 µM and a selectivity ratio [3] of 13.7.

CC(C)(NC(=O)OCc1ccccc1)c1nc(O)c(O)c(C(=O)NCCc2ccc(F)cc2)n1 showed an EC50 [1] of 8.61 µM, a CC50 at 72 h [2] of 35.4 µM and a selectivity ratio [3] of 4.11.

In the case of CC(C)(NC(=O)OCc1ccccc1)c1nc(O)c(O)c(C(=O)NCCc2ccccc2)n1, the EC50 [1] is reported as 11.6 µM, the CC50 at 72 h [2] is reported as 38.5 µM and the selectivity ratio [3] is reported as 3.32.
